Test results: patent US9187471B2, “Pyrido [4,3-b] indole and pyrido [3,4-b] indole derivatives and methods of use” (Medivation Technologies, Inc., priority 2010, dated 2015)

What was measured:
[1] = molecular target: T1, rat adrenergic α1A receptor (Rattus norvegicus, UniProt P43140); assay: Adrenergic α1A radioligand binding ([3H]Prazosin); conditions: read-out: Adrenergic (0.1 μM) a1A, percent inhibition of specific binding; compound at 0.1 μM; 0.25 nM [3H]Prazosin
T1 construct: rat adrenergic α1A receptor obtained from Wistar Rat submaxillary glands; from tissue; host or cells: Wistar rat submaxillary glands
T1 sequence (P43140 1-466): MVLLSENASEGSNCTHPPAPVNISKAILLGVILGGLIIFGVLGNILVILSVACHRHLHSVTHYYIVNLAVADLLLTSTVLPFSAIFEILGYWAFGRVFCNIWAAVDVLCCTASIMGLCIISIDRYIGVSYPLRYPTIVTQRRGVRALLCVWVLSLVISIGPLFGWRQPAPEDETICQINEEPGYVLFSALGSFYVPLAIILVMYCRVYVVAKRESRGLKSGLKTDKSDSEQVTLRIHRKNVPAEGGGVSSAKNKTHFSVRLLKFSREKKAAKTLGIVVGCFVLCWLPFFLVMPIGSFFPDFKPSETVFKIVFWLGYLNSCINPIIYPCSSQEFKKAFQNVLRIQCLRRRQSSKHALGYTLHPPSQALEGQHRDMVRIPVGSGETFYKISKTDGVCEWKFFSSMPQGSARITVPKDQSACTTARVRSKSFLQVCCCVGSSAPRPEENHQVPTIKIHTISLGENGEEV
Method in brief: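 Wistar rat submaxillary gland receptor in 50 mM Tris-HCl pH 7.4 with 0.5 mM EDTA, incubated with compound and 0.25 nM [3H]Prazosin for 60 min at 25 °C.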

Adrenergic α1B = molecular target: T2, Adrenergic α1B (Rattus norvegicus, UniProt P15823); assay: Adrenergic α1B radioligand binding ([3H]Prazosin); conditions: read-out: Adrenergic (0.1 μM) a1B, percent inhibition of specific binding; compound at 0.1 μM; 0.25 nM [3H]Prazosin; Wistar Rat liver
T2 construct: rat adrenergic α1D receptor obtained from Wistar Rat liver; from tissue; host or cells: Wistar rat liver
T2 sequence (P15823 1-515): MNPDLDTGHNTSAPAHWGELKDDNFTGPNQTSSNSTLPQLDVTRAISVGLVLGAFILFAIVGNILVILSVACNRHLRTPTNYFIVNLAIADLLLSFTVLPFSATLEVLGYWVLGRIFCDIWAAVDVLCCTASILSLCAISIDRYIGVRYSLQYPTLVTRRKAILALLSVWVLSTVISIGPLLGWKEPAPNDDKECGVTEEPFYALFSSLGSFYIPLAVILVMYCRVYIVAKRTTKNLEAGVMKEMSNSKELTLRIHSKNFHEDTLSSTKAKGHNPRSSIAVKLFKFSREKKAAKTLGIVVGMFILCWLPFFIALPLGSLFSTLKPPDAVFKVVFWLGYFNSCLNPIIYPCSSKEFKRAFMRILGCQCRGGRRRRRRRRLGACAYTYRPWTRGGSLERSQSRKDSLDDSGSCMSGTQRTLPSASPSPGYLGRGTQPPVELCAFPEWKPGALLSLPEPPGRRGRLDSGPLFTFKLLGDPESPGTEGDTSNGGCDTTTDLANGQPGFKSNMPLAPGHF
Method: To evaluate in radioligand binding assays the activity of compounds of the invention, rat adrenergic α1D receptor obtained from Wistar Rat liver (Garcia-S'ainz, J. et al, Biochem. Biophys. Res. Commun. 186:760, 1992; Michel, A. et al, Br. J. Pharmacol. 98:883, 1989) in a modified Tris-HCl buffer (50 mM Tris-HCl buffer, pH 7.4, 0.5 mM EDTA) was used. Compounds of the invention were incubated with 0.25 nM [^3H]Prazosin for 60 min at 25° C. Non-specific binding was estimated in the presence of 10 μM phentolamine Receptor proteins were filtered and washed, the filters were then counted to determine [^3H]Prazosin specifically bound. […] Compounds of the invention were tested in this biochemical assay and percent inhibition of specific binding was determined.

[2] = molecular target: T3, human recombinant adrenergic α2A receptor (Homo sapiens, UniProt P08913); assay: Adrenergic α2A radioligand binding ([3H]MK-912); conditions: read-out: Adrenergic (0.1 μM) a2A, percent inhibition of specific binding; compound at 0.1 μM; 1 nM [3H]MK-912
T3 construct: expressed in transfected cells; host or cells: insect Sf9 cells
T3 sequence (P08913 1-465): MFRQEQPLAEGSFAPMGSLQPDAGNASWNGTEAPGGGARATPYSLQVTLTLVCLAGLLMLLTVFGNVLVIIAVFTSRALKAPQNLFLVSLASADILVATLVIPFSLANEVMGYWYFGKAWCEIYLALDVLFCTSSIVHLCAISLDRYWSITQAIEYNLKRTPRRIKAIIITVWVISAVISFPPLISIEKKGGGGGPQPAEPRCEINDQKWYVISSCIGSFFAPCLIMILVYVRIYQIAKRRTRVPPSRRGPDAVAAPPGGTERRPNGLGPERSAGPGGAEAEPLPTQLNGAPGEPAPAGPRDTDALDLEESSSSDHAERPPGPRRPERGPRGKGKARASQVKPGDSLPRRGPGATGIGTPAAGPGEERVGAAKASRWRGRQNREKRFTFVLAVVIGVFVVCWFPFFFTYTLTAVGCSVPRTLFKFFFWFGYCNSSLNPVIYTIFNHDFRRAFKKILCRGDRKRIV
Method: To evaluate in radioligand binding assays the activity of compounds of the invention, human recombinant adrenergic α2A receptor expressed in insect Sf9 cells (Uhlen, S. et al, J. Pharmacol. Exp. Ther. 271:1558, 1994) in a modified Tris-HCl buffer (50 mM Tris-HCl, pH 7.4, 12.5 mM MgCl2, 2 mM EDTA) was used. Compounds of invention were incubated with 1 nM [^3H]MK-912 for 60 min at 25° C. MK-912 is (2S-trans)-1,3,4,5′,6,6′,7,12b-octahydro-1′,3′-dimethyl-spiro[2H-benzofuro[2,3-a]quinolizine-2,4′(1′H)-pyrimidin]-2′(3′H)-one hydrochloride Non-specific binding was estimated in the presence of 10 μM WB-4101 (2-(2,6-Dimethoxyphenoxyethyl)aminomethyl-1,4-benzodioxane hydrochloride). Receptor proteins were filtered and washed, the filters were then counted to determine [^3H]MK-912 specifically bound. […] Compounds of the invention were tested in this biochemical assay and percent inhibition of specific binding was determined.

[3] = molecular target: T4, human recombinant adrenergic α2B receptor (Homo sapiens, UniProt P18089); assay: Adrenergic α2B radioligand binding ([3H]Rauwolscine); conditions: read-out: Adrenergic (0.1 μM) a2B, percent inhibition of specific binding; compound at 0.1 μM; 2.5 nM [3H]Rauwolscine
T4 construct: expressed in transfected cells; host or cells: CHO-K1
T4 sequence (P18089 1-450): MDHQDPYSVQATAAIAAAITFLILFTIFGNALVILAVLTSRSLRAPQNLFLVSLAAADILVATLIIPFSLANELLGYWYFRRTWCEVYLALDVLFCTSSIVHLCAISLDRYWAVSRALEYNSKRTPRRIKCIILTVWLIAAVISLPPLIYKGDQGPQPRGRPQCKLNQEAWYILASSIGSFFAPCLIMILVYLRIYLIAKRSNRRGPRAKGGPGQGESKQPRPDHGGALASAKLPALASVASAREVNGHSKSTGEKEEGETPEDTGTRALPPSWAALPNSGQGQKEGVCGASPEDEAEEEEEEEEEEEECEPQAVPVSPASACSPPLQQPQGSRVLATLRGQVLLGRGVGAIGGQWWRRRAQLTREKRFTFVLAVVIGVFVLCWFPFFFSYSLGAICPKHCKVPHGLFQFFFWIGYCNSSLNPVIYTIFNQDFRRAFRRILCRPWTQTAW
Method: To evaluate in radioligand binding assays the activity of compounds of the invention, human recombinant adrenergic α2B receptor expressed in Chinese hamster ovary (CHO) K1 cells (Uhlen, S. et al, Eur. J. Pharmacol. 343(1):93, 1998) in a modified Tris-HCl buffer (50 mM Tris-HCl, pH 7.4, 12.5 mM MgCl2, 1 mM EDTA, 0.2% BSA) was used. Compounds of the invention were incubated with 2.5 nM [^3H]Rauwolscine for 60 min at 25° C. Non-specific binding was estimated in the presence of 10 μM Prazosin. Receptor proteins were filtered and washed, the filters were then counted to determine [^3H]Rauwolscine specifically bound. […] Compounds of the invention were tested in this biochemical assay and percent inhibition of specific binding was determined.

| Compound | inhibition at 0.1 µM [1] [%] | inhibition at 0.1 µM (Adrenergic α1B) [%] | inhibition at 0.1 µM [2] [%] | inhibition at 0.1 µM [3] [%] |
| --- | --- | --- | --- | --- |
| CNC(=O)c1cccc(-c2ccc(-n3c4c(c5cc(C)ccc53)CN(C)CC4)nc2)c1 [Compound No. 143, 3-(6-(2,8-dimethyl-3,4-dihydro-1H-pyrido[4,3-b]indol-5(2H)-yl)pyridin-3-yl)-N-methylbenzamide] | 32 | 83 | 44 | 77 |
| Cc1ccc2c(c1)c1c(n2-c2cscc2-c2ccc(C)s2)CCN(C)C1 [Compound No. 79] | 79 | – | 92 | 106 |
| Cc1ccc2c(c1)c1c(n2-c2cscc2-c2ccc3cnccc3c2)CCN(C)C1 [Compound No. 68] | 71 | – | 90 | – |
| Cc1ccc2c(c1)c1c(n2-c2ccccc2-c2ccc3c(ccn3C)c2)CCN(C)C1 [Compound No. 85, 2,8-dimethyl-5-(2-(1-methyl-1H-indol-5-yl)phenyl)-2,3,4,5-tetrahydro-1H-pyrido[4,3-b]indole] | 24 | – | 94 | – |
| COc1ccc(-c2cscc2-n2c3c(c4cc(C)ccc42)CN(C)CC3)cc1 [Compound 37] | 82 | – | 94 | – |
| Cc1ccc2c(c1)c1c(n2-c2cscc2-c2ccc(S(C)(=O)=O)cc2)CCN(C)C1 [Compound No. 76] | 82 | – | 90 | – |
| Cc1ccc2c(c1)c1c(n2-c2cscc2-c2ccc3c(ccn3C)c2)CCN(C)C1 [Compound 33] | 57 | 52 | 100 | – |
